In publication PMC7782162, “Inhibition of the β-carbonic anhydrase from the protozoan pathogen Trichomonas vaginalis with sulphonamides” (Journal of Enzyme Inhibition and Medicinal Chemistry, 2020):

Columns and labels:
[1] = molecular target: T1, TvaCA1 (Trichomonas vaginalis, UniProt A2ENQ8); assay: stopped-flow CO2 hydrase assay; assay type: biochemical; conditions: read-out: KI^a (nM) / TvaCA1^c
T1 construct: gene TVAG_005270; recombinant from E. coli BL21 Star (DE3), Ni2+-NTA purified; beta-CA homodimer with two active sites
T1 sequence (A2ENQ8 1-182): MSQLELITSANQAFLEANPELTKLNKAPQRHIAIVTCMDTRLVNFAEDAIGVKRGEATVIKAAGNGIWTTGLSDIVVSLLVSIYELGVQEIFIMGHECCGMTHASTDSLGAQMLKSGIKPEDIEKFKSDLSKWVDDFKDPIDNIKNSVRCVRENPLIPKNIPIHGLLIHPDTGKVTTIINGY

[2] = molecular target: T1, TvaCA1; assay: biochemical; design: stopped-flow CO2 hydration assay, phenol red at 557 nm, TRIS pH 8.3, 15 min preincubation, KI; conditions: read-out: KI^a (nM) / TvaCA1^c / β
Description: An Applied Photophysics stopped-flow instrument was used for assaying the CA catalysed CO2 hydration activity. Phenol red (at a concentration of 0.2 mM) was used as an indicator, working at the absorbance maximum of 557 nm, with 10 − 20 mM HEPES (pH 7.5, for α-CAs) or TRIS (pH 8.3 for β-CAs) as buffers, and 20 mM NaClO4 (for maintaining constant the ionic strength), following the initial rates of the CA-catalysed CO2 hydration reaction for a period of 10–100 s. The CO2 concentrations ranged from 1.7 to 17 mM for the determination of the kinetic parameters and inhibition constants. For each inhibitor, at least six traces of the initial 5–10% of the reaction were used for determining the initial velocity. The uncatalyzed rates were determined in the same manner and subtracted from the total observed rates. Stock solutions of inhibitors (10 mM) and dilutions up to 0.01 nM were prepared in distilled-deionised water. Inhibitor and enzyme solutions of concentrations ranging between 5 and 12 nM were preincubated together for 15 min at room temperature prior to assay, in order to allow for the formation of the enzyme–inhibitor complex. The inhibition constants were obtained by non-linear least-squares methods using PRISM 3 as reported earlier, and represent the mean from at least three different determinations. TvaCA1 was a recombinant enzyme obtained in-house as described earlier. The enzyme was recombinantly produced in E. coli (OneShot® BL21 Star™ (DE3) Chemically Competent Cells, #C601003, Thermo Fisher Scientific, Finland). The enzyme was purified using Ni^2+-NTA agarose affinity chromatography resin (Macherey-Nagel GmbH Co., Germany). More detailed information concerning the recombinant protein production and its kinetic and structural characterisation can be found in our previous article. The presence of the correct protein in the isolated protein fraction was confirmed by tandem mass spectrometry (MS/MS).

Molecule CCN[C@H]1CN(CCCOC)S(=O)(=O)c2sc(S(N)(=O)=O)cc21 [BRZ, brinzolamide] has a Ki [1] of over 50000 nM.
Molecule NS(=O)(=O)c1nnc(NS(=O)(=O)c2ccccc2)s1 [BZA, benzolamide] has a Ki [1] of over 50000 nM.
For Cc1ccc(-c2cc(C(F)(F)F)nn2-c2ccc(S(N)(=O)=O)cc2)cc1 [CLX], the Ki [2] was over 50000 nM.
NS(=O)(=O)c1cc(Cl)c(Cl)c(S(N)(=O)=O)c1 [DCP, dichlorophenamide] showed a Ki [1] of over 50000 nM.
Molecule NS(=O)(=O)c1cc2c(cc1Cl)NCNS2(=O)=O [HCT] has a Ki [2] of over 50000 nM.
NS(=O)(=O)c1ccc(S(=O)(=O)Nc2cccc3c(Cl)c[nH]c23)cc1 [IND] showed a Ki [2] of over 50000 nM.
For CC(=O)N=c1sc(S(N)(=O)=O)nn1C [MZA, methazolamide], the Ki [1] was 3830 nM.
In the case of O=C1NS(=O)(=O)c2ccccc21 [SAC], the Ki [2] is reported as over 50000 nM.
NS(=O)(=O)c1ccc(N2CCCCS2(=O)=O)cc1 [SLT] gave a Ki [2] of over 50000 nM.
CC1(C)O[C@@H]2[C@@H](CO[C@@]3(COS(N)(=O)=O)OC(C)(C)O[C@@H]23)O1 [TPM, topiramate] was tested, and the Ki [1] was over 50000 nM.
Cc1onc(-c2ccccc2)c1-c1ccc(S(N)(=O)=O)cc1 [VLX] was tested, and the Ki [2] was over 50000 nM.
In the case of NS(=O)(=O)Cc1noc2ccccc12 [ZNS, zonisamide], the Ki [1] is reported as over 50000 nM.
Nc1cccc(S(N)(=O)=O)c1 [compound 1, 1] showed a Ki [1] of 3250 nM.
With Nc1ccc(S(N)(=O)=O)cc1 [compound 2, 2] the Ki [1] was 4740 nM.
Molecule NS(=O)(=O)c1cccc(S(N)(=O)=O)c1 [compound 3, 3] has a Ki [1] of 3560 nM.
Cc1ccc(S(N)(=O)=O)cc1 [compound 4, 4] gave a Ki [1] of 3600 nM.
Work on NCc1ccc(S(N)(=O)=O)cc1 [compound 5] yielded a Ki [2] of over 50000 nM.
In the case of NCCc1ccc(S(N)(=O)=O)cc1 [compound 6], the Ki [2] is reported as over 50000 nM.
Nc1ccc(S(N)(=O)=O)cc1F [compound 7, 7] gave a Ki [1] of 4280 nM.
Nc1ccc(S(N)(=O)=O)cc1Cl [compound 8] gave a Ki [2] of over 50000 nM.
Nc1ccc(S(N)(=O)=O)cc1Br [compound 9] was tested, and the Ki [2] was over 50000 nM.
NS(=O)(=O)c1cc(Cl)cc(Cl)c1O [compound 10, 10] gave a Ki [1] of 4540 nM.
Nc1cc(C(F)(F)F)c(S(N)(=O)=O)cc1S(N)(=O)=O [compound 11] showed a Ki [2] of over 50000 nM.
In the case of Nc1cc(Cl)c(S(N)(=O)=O)cc1S(N)(=O)=O [compound 12], the Ki [2] is reported as over 50000 nM.
Nc1nnc(S(N)(=O)=O)s1 [compound 13, 13] gave a Ki [1] of 1890 nM.
With Cn1nc(S(N)(=O)=O)sc1=N [compound 14, 14] the Ki [1] was 3990 nM.
Work on NS(=O)(=O)c1ccc(O)cc1 [compound 15, 15] yielded a Ki [1] of 2030 nM.
Work on NS(=O)(=O)c1ccc(CO)cc1 [compound 16] yielded a Ki [2] of over 50000 nM.
In the case of NS(=O)(=O)c1ccc(CCO)cc1 [compound 17], the Ki [2] is reported as over 50000 nM.
NS(=O)(=O)c1ccc(C(=O)O)cc1 [compound 18] gave a Ki [2] of over 50000 nM.
Molecule Nc1nccc(Nc2ccc(S(N)(=O)=O)cc2)n1 [compound 19, 19] has a Ki [1] of 4530 nM.
Nc1ccc(S(=O)(=O)Nc2nnc(S(N)(=O)=O)s2)cc1 [compound 20] showed a Ki [2] of over 50000 nM.
NS(=O)(=O)c1ccc(CCNS(=O)(=O)c2ccc([N+](=O)[O-])cc2CO)cc1 [compound 21, 21] showed a Ki [1] of 3450 nM.
For Nc1ccc(S(=O)(=O)Nc2ccc(S(N)(=O)=O)cc2)cc1 [compound 22], the Ki [2] was over 50000 nM.
For Nc1ccc(S(=O)(=O)NCc2ccc(S(N)(=O)=O)cc2)cc1 [compound 23], the Ki ([2]; inhibitor) was over 50000 nM.
